The results in this text go back to PubChem BioAssay (NCI).

Assay in all cases: inhibition of tumour cell growth, NCI panel, 48 h
Experiment [1] relates to A549 NSCLC.
Experiment [2] concerns CAKI-1 renal.
In experiment [3] the test system is HCC-2998 colon.
For experiment [4], the system named is HCT-116 colon.
For experiment [5], the system named is HS 578T breast.
Experiment [6] concerns OVCAR-3 ovarian.
Experiment [7] concerns PC-3 prostate.
In experiment [8] the test system is SK-OV-3 ovarian.
The subject of experiment [9] is SNB-75 CNS.
Experiment [10] relates to SK-MEL-2 melanoma.

“And” between values parts separate entries of the source, which are not always exact repeats. Equal values may be shown once.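 How tested: cells in 96-well plates exposed to compound for 48 hours at five concentrations. GI50: concentration for 50% inhibition of growth. The concentration for full growth arrest is given as TGI.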 *1 amine or outer side, *2 acyl side, *3 side chain or, on linkers, in order; H or OH if unused. Where a SMILES comes first, the peptide text is derived from it. [ ]: non-standard residue; d: D form. X56 = CC[C@H](C)[C@H](OC(=O)[C@@H](C)[C@@H](CC)N[*:1])C(=O)[*:2]; X32 = C[C@H](N[*:1])C(=O)C(C)(C)C(=O)[*:2]; NMeY = CN[C@@H](Cc1ccc(O)cc1)C(=O)O; NMeL = CN[C@@H](CC(C)C)C(=O)O; NMeV = CN[C@H](C(=O)O)C(C)C A value given as a limit tells only on which side of the number the result lay.

Regarding `O=[N+]([O-])c1ccc(Cl)cc1N/N=C/c1cccc2cccnc12`, the TGI in [1], in experiment [2], in experiment [3], in experiment [4], in experiment [5] and in [6] was greater than 100 µM in each case. For the same molecule, the TGI in [7], in experiment [8] and in [9] was greater than 100 µM in each case.
With `O=C1CS/C(=N\S(=O)(=O)c2ccc(N3N=C4c5ccccc5CC4C3c3ccc(Cl)cc3)cc2)N1c1ccccc1` (stereo not drawn), the GI50 in experiment [1] is 24.2 µM; in experiment [2], 35.8 µM; in experiment [4], 38.7 µM; in experiment [5] it was 29.4 µM; in experiment [6] it was 48.5 µM; in experiment [7], 22.6 µM. Further, the GI50 in [10] was greater than 100 µM; in [8], 31.4 µM. Besides, the TGI in experiment [1] is 65.8 µM; in [2], greater than 100 µM; in experiment [4], greater than 100 µM; in experiment [5], 87.4 µM; in [6], greater than 100 µM; in experiment [7], 58.6 µM. Also, the figures for the TGI in experiment [10] and in experiment [8] were greater than 100 µM and 95.2 µM, respectively.
Regarding `Nc1nc(-c2cccc([N+](=O)[O-])c2)cc(-c2cc(-c3cccc([N+](=O)[O-])c3)nc(N)n2)n1`, the TGI in experiment [1], in [2], in experiment [3], in experiment [4], in experiment [5] and in [6] was greater than 100 µM throughout. In addition, the TGI in experiment [7], in experiment [10] and in experiment [8] was greater than 100 µM in each case.
For the molecule `O=C1NN(c2ccccc2)C(=O)/C1=C/c1ccc(Br)o1`, the GI50 in experiment [1] was 12 µM; in experiment [2] it was 5.8 µM; in experiment [4], 11.4 µM; in [5], 1.49 µM; in experiment [6], 1.07 µM; in experiment [7] it was 6.9 µM. For the same molecule, the GI50 is 15.8 µM in experiment [10], 26.7 µM in experiment [8] and 24.3 µM in experiment [9]. Further, the TGI in [1] worked out at 44.4 µM; in experiment [2], 20.8 µM; in experiment [4], 25.8 µM; in experiment [5], 3.11 µM; in experiment [6], 13.2 µM; in [7] it was 26.3 µM. For the same molecule, the TGI is 44.7 µM in experiment [10], greater than 61.4 µM in [8] and 58.6 µM in experiment [9].
Regarding `CC(C)c1ccc(NC(=S)NC(=O)c2ccccc2)cc1`, the TGI is greater than 100 µM in experiment [1]; 55.5 µM in experiment [2]; 39.4 µM in experiment [3]; 39.3 µM in experiment [4]; greater than 100 µM in experiment [5]; 38.3 µM in experiment [6]. Besides, the TGI in experiment [7] is greater than 100 µM; in experiment [10], 35.8 µM; in experiment [8] it was greater than 100 µM.
`CC[C@H](C)[C@@H]1OC(=O)[C@@H](C)[C@@H](CC)NC(=O)[C@H](C)NC(=O)C(C)(C)C(=O)[C@H](C)NC(=O)[C@H](Cc2ccc(OC)cc2)N(C)C(=O)[C@H](C(C)C)N(C)C(=O)CNC(=O)[C@H](CC(C)C)N(C)C(=O)CNC1=O` (cyclo(A[X56]G[NMeL]G[NMeV][NMeY](Me)[X32])): the TGI in [1] is 3.19 µM and 6.15 µM; in experiment [2], 0.122 µM and 0.0888 µM; in experiment [3], 3.94 µM; in experiment [4], 11.3 µM; in experiment [6], 0.197 µM and 0.307 µM; in experiment [7], 6.85 µM. In addition, the TGI in experiment [10] is 0.438 µM and 2.68 µM. In addition, the GI50 was 0.0259 µM in experiment [2], 0.0304 µM in [6], 0.024 µM in [8] and less than 0.0154 µM in experiment [9].
Regarding `COc1ccccc1-c1cc(=O)c2ccc(OC)c(OC)c2o1`, the TGI in [1], in experiment [2], in experiment [3], in [4], in [5] and in experiment [6] was greater than 100 µM throughout. For the same molecule, the TGI in [10], in experiment [8] and in experiment [9] was greater than 100 µM in each case.
For `COc1ccc2c(c1)C1(C(=O)N2)C(C#N)=C(c2ccccc2)Nc2c1c(-c1ccccc1)nn2-c1ccccc1` (stereo not drawn), the GI50 in experiment [1] is 2.49 µM; in experiment [3], 3.51 µM; in experiment [4], 1.66 µM; in experiment [5] it was 4.1 µM; in experiment [6], 1.95 µM; in experiment [7], 1.98 µM. The GI50 was 6.47 µM in experiment [10], 2.08 µM in experiment [8] and 1.39 µM in [9]. In addition, the TGI in experiment [1] turned out to be 5.55 µM; in [3], 12.5 µM; in experiment [4], 3.02 µM; in experiment [5] it was 19.3 µM; in experiment [6] it was 3.39 µM; in experiment [7] it was 3.67 µM. For the same molecule, the TGI in experiment [10] was found to be 21.8 µM; in [8], 5.14 µM; in [9] it was 3.43 µM.
Consider `Cc1cc2cn3c4cccnc4[nH]c(=O)c3c2cc1C`, for which the GI50 was 1.42 µM in experiment [2]; 1.5 µM in experiment [3]; 1.45 µM in experiment [4]; 1.85 µM in experiment [5]; 1.77 µM in experiment [6]; 1.42 µM in [7]. The GI50 was 1.8 µM in [8] and 1.43 µM in experiment [9]. For the same molecule, the TGI worked out at 2.92 µM in experiment [2]; 2.92 µM in [3]; 2.76 µM in experiment [4]; 4.38 µM in [5]; 3.22 µM in experiment [6]; 2.89 µM in [7]. For the same molecule, the TGI in [8] is 3.2 µM; in experiment [9], 3.08 µM.
For `COc1ccc(/C=C/NC=O)cc1`, the TGI in experiment [1], in experiment [3], in [4], in [5], in [6] and in experiment [7] was greater than 100 µM throughout. In addition, the TGI in [10], in [8] and in [9] was greater than 100 µM in each case.
In the case of `N#C/C(=C\c1ccc(Br)cc1)n1nnc2ccccc21`, the GI50 was 0.808 µM in experiment [1]; 0.345 µM in [2]; 1.51 µM in experiment [3]; 0.518 µM in experiment [4]; 2.63 µM in [5]; 0.244 µM in [6]. Also, the GI50 in [7] was 0.47 µM; in experiment [10], 0.71 µM; in experiment [8], 5.11 µM. In addition, the TGI worked out at 15 µM in experiment [1]; 2 µM in experiment [2]; 3.34 µM in [3]; 1.93 µM in experiment [4]; 14 µM in [5]; 0.604 µM in experiment [6]. The TGI is 2.3 µM in experiment [7], 3.42 µM in [10] and 22.1 µM in [8].
With `CNCCCNCCCN1C(=O)c2ccc3c4c(ccc(c24)C1=O)C(=O)N(CCCNCc1ccccc1OC)C3=O`, the GI50 in experiment [1] is 0.577 µM; in experiment [3] it was 1.93 µM; in experiment [4], 0.27 µM; in experiment [5] it was 3.02 µM; in [6], 1.37 µM; in experiment [7], 1.6 µM. The values for the GI50 in [10], in experiment [8] and in [9] were 1.75 µM, 2.95 µM and 1.11 µM, respectively. The TGI in [1] was determined as 4.97 µM; in [3], 6.42 µM; in experiment [4], 1.21 µM; in experiment [5], 28.5 µM; in experiment [6], 9.23 µM; in [7], 10.1 µM. In addition, the TGI in experiment [10] was 3.97 µM; in experiment [8], 23.7 µM; in experiment [9], 2.51 µM.
`CC1(C)CC2(C)CC1CC2NC(=O)CCN1CCOCC1` (stereo not drawn): the TGI in [1], in [2], in experiment [3], in experiment [4], in experiment [5] and in [6] was greater than 100 µM in each case. In addition, the TGI in [7], in experiment [8] and in experiment [9] was greater than 100 µM in each case.
With `Clc1ccc(Nc2ccnc(NCCCNc3ccnc4cc(Cl)ccc34)n2)cc1`, the GI50 in experiment [1] is 1.73 µM; in experiment [2], 1.43 µM; in [4], 1.42 µM; in experiment [5], 1.73 µM; in experiment [7], 1.58 µM; in experiment [10], 1.98 µM. In addition, the GI50 was 1.57 µM in experiment [8] and 1.23 µM in experiment [9]. The TGI in experiment [1] came out at 3.35 µM; in experiment [2] it was 2.83 µM; in [4], 3.1 µM; in experiment [5] it was 3.8 µM; in experiment [7], 3.13 µM; in experiment [10], 3.61 µM. The TGI in [8] came out at 2.94 µM; in experiment [9], 2.5 µM.
Turning to `COc1ccc(N(/C=C/C(=O)C(F)(F)F)CC(=O)c2ccc(Cl)c(Cl)c2)cc1`, the GI50 was 17.7 µM in [1]; 15.6 µM in experiment [2]; 18.5 µM in [3]; 9.94 µM in [4]; 4.81 µM in [5]; 15.6 µM in experiment [6]. The GI50 in experiment [7] is 8.33 µM; in experiment [10] it was 19.6 µM; in experiment [8] it was 20.1 µM. Also, the TGI in [1] came out at 68 µM; in experiment [2], 34.7 µM; in [3], 32.5 µM; in experiment [4], 21.5 µM; in [5], 14.6 µM; in [6] it was 29.3 µM. Besides, the results for the TGI in experiment [7], in experiment [10] and in experiment [8] were 28.3 µM, 44 µM and 39.7 µM, respectively.
